Experiment: Chemical stability: concentration / degradation of compound of Formula I in compositions on storage
[1] = SC composition at pH 4, Table 12

Experimental: The amount of degradation permitted before the degradation is considered to be significant depends on the concentration of the active ingredients in the composition.
The physical and chemical stability of composition of Example 5 was tested under various conditions including CIPAC conditions.

SMILES: Cc1ccc(S(=O)(=O)n2cc(F)c(=N)n(C)c2=O)cc1 [Form III, 5-fluoro-4-imino-3-methyl-1-tosyl-3,4-dihydropyrimidin-2(1H)-one]
- stability in oil dispersion (OD) composition compared with suspension concentrate (SC) composition: more stable

SMILES: Cc1ccc(S(=O)(=O)n2cc(F)c(=N)n(C)c2=O)cc1 [Hydrate I (45% Hydrate, and 55% Form I Polymorph)] [5-fluoro-4-imino-3-methyl-1-tosyl-3,4-dihydropyrimidin-2(1H)-one]
- % Water Content (total water in the composition, including free water and water in the hydrate): 0.29%

SMILES: Cc1ccc(S(=O)(=O)n2cc(F)c(=N)n(C)c2=O)cc1 [compound of Formula I, 5-fluoro-4-imino-3-methyl-1-tosyl-3,4-dihydropyrimidin-2(1H)-one]
- amount of the compound of Formula I in the composition, after decrease [1]: 31.1 % by weight based on the total weight of the composition
- amount of the compound of Formula I in the composition, before decrease [1]: 44.4 % by weight based on the total weight of the composition

— patent US20240237649A1, “CRYSTALLINE FORMS OF 5-FLUORO-4-IMINO-3-METHYL-1-TOSYL-3,4-DIHYDROPYRIMIDIN-2-ONE, AND MIXTURES, COMPOSITIONS AND METHODS OF USE THEREOF” (Adama Makhteshim Ltd., priority 2021, published 2024)
